Reference: ChEMBL document CHEMBL4619795, “Establishing the Structure-Activity Relationship of Daptomycin” (ACS Med Chem Lett, 2020)

Experiments:
Format in all cases: functional
[1] = system: Staphylococcus aureus; assay: Antibacterial activity against methicillin-resistant Staphylococcus aureus 14 assessed as bacterial growth inhibition in presence of 50 ug/ml calcium ions by CLSI protocol based broth microdilution method
[2] = system: Enterococcus; assay: Antibacterial activity against Enterococcus 6 assessed as bacterial growth inhibition in presence of 50 ug/ml calcium ions by CLSI protocol based broth microdilution method
[3] = system: Staphylococcus aureus; assay: Antibacterial activity against methicillin-resistant Staphylococcus aureus 11 assessed as bacterial growth inhibition in presence of 50 ug/ml calcium ions by CLSI protocol based broth microdilution method
[4] = system: Staphylococcus aureus; assay: Antibacterial activity against Staphylococcus aureus ATCC 29213 assessed as bacterial growth inhibition in presence of 50 ug/ml calcium ions by CLSI protocol based broth microdilution method
[5] = system: Staphylococcus aureus; assay: Antibacterial activity against methicillin-resistant Staphylococcus aureus 86 assessed as bacterial growth inhibition in presence of 50 ug/ml calcium ions by CLSI protocol based broth microdilution method
[6] = system: Staphylococcus aureus; assay: Antibacterial activity against methicillin-resistant Staphylococcus aureus 88 assessed as bacterial growth inhibition in presence of 50 ug/ml calcium ions by CLSI protocol based broth microdilution method
[7] = system: Enterococcus faecalis; assay: Antibacterial activity against Enterococcus faecalis ATCC 29212 assessed as bacterial growth inhibition in presence of 50 ug/ml calcium ions by CLSI protocol based broth microdilution method
[8] = system: Enterococcus; assay: Antibacterial activity against Enterococcus 60 assessed as bacterial growth inhibition in presence of 50 ug/ml calcium ions by CLSI protocol based broth microdilution method
[9] = system: Enterococcus faecalis; assay: Antibacterial activity against Streptococcus faecalis assessed as bacterial growth inhibition in presence of 50 ug/ml calcium ions by CLSI protocol based broth microdilution method

SMILES | MIC [1] [µg/mL] | MIC [2] [µg/mL] | MIC [3] [µg/mL] | MIC [4] [µg/mL] | MIC [5] [µg/mL] | MIC [6] [µg/mL] | MIC [7] [µg/mL] | MIC [8] [µg/mL] | MIC [9] [µg/mL]
CCCCCCCCCC(=O)N[C@@H](Cc1c[nH]c2ccccc12)C(=O)N[C@@H](CC(N)=O)C(=O)N[C@@H](CC(=O)O)C(=O)N[C@@H]1C(=O)NCC(=O)N[C@@H](CCN)C(=O)N[C@@H](CC(=O)O)C(=O)N[C@H](C)C(=O)N[C@@H](CC(=O)O)C(=O)NCC(=O)N[C@H](CO)C(=O)N[C@@H]([C@@H](C)CC(=O)O)C(=O)N[C@@H](CC(=O)c2ccccc2N)C(=O)O[C@@H]1C | 0.5 | 16 | 2 | 0.25 | 0.25 | 0.25 | 16 | 8 | –
CCCCCCCCCC(=O)N[C@@H](Cc1c[nH]c2ccccc12)C(=O)N[C@@H](CC(N)=O)C(=O)N[C@@H](C)C(=O)N[C@@H]1C(=O)NCC(=O)N[C@@H](CCCN)C(=O)N[C@@H](CC(=O)O)C(=O)N[C@H](C)C(=O)N[C@@H](CC(=O)O)C(=O)NCC(=O)N[C@H](CO)C(=O)N[C@@H]([C@@H](C)CC(=O)O)C(=O)N[C@@H](CC(=O)c2ccccc2N)C(=O)O[C@@H]1C | ≥ 32 | ≥ 32 | ≥ 32 | 16 | 16 | 16 | ≥ 32 | ≥ 32 | ≥ 32
CCCCCCCCCC(=O)N[C@@H](Cc1c[nH]c2ccccc12)C(=O)N[C@@H](CC(N)=O)C(=O)N[C@@H](CC(=O)O)C(=O)N[C@@H]1C(=O)NCC(=O)N2CCC[C@H]2C(=O)N[C@@H](CC(=O)O)C(=O)N[C@H](C)C(=O)N[C@@H](CC(=O)O)C(=O)NCC(=O)N[C@H](CO)C(=O)N[C@@H]([C@@H](C)CC(=O)O)C(=O)N[C@@H](CC(=O)c2ccccc2N)C(=O)O[C@@H]1C | ≥ 32 | ≥ 32 | ≥ 32 | ≥ 32 | ≥ 32 | ≥ 32 | ≥ 32 | ≥ 32 | ≥ 32
CCCCCCCCCC(=O)N[C@@H](Cc1c[nH]c2ccccc12)C(=O)N[C@@H](CC(N)=O)C(=O)N[C@@H](CC(=O)O)C(=O)N[C@@H]1C(=O)NCC(=O)N[C@@H]([C@@H](C)CC)C(=O)N[C@@H](CC(=O)O)C(=O)N[C@H](C)C(=O)N[C@@H](CC(=O)O)C(=O)NCC(=O)N[C@H](CO)C(=O)N[C@@H]([C@@H](C)CC(=O)O)C(=O)N[C@@H](CC(=O)c2ccccc2N)C(=O)O[C@@H]1C | ≥ 32 | ≥ 64 | ≥ 32 | 8 | 8 | 4 | ≥ 64 | 32 | ≥ 64
CCCCCCCCCC(=O)N[C@@H](Cc1c[nH]c2ccccc12)C(=O)N[C@@H](CC(N)=O)C(=O)N[C@@H](CC(=O)O)C(=O)N[C@@H]1C(=O)NCC(=O)N[C@@H](CCCN)C(=O)N[C@@H](CC(=O)O)C(=O)N[C@H](C)C(=O)N[C@@H](CC(=O)O)C(=O)NCC(=O)N[C@H](CO)C(=O)N[C@@H]([C@@H](C)CC(=O)O)C(=O)N[C@@H](C)C(=O)O[C@@H]1C | ≥ 32 | ≥ 32 | ≥ 32 | ≥ 32 | ≥ 32 | ≥ 32 | ≥ 32 | ≥ 32 | ≥ 32
CCCCCCCCCC(=O)N[C@@H](Cc1c[nH]c2ccccc12)C(=O)N[C@@H](CC(N)=O)C(=O)N[C@@H](CC(=O)O)C(=O)N[C@@H]1C(=O)NCC(=O)N[C@@H](CCCN)C(=O)N[C@@H](CC(=O)O)C(=O)N[C@@H](C)C(=O)N[C@@H](CC(=O)O)C(=O)NCC(=O)N[C@H](CO)C(=O)N[C@@H]([C@@H](C)CC(=O)O)C(=O)N[C@@H](CC(=O)c2ccccc2N)C(=O)O[C@@H]1C | ≥ 64 | ≥ 64 | ≥ 64 | ≥ 64 | ≥ 64 | ≥ 64 | ≥ 64 | ≥ 64 | ≥ 64
CCCCCCCCCC(=O)N[C@@H](Cc1ccc(OC)cc1)C(=O)N[C@@H](CC(N)=O)C(=O)N[C@@H](CC(=O)O)C(=O)N[C@@H]1C(=O)NCC(=O)N[C@@H](CCCN)C(=O)N[C@@H](CC(=O)O)C(=O)N[C@H](C)C(=O)N[C@@H](CC(=O)O)C(=O)NCC(=O)N[C@H](CO)C(=O)N[C@@H]([C@@H](C)CC(=O)O)C(=O)N[C@@H](CC(=O)c2ccccc2N)C(=O)O[C@@H]1C | 4 | ≥ 32 | 16 | 2 | 2 | 2 | ≥ 32 | ≥ 32 | 8
CCCCCCCCCC(=O)N[C@@H](Cc1c[nH]c2ccccc12)C(=O)N[C@@H](CC(N)=O)C(=O)N[C@@H](CC(=O)O)C(=O)N[C@@H]1C(=O)NCC(=O)N[C@@H](CCC(=O)O)C(=O)N[C@@H](CC(=O)O)C(=O)N[C@H](C)C(=O)N[C@@H](CC(=O)O)C(=O)NCC(=O)N[C@H](CO)C(=O)N[C@@H]([C@@H](C)CC(=O)O)C(=O)N[C@@H](CC(=O)c2ccccc2N)C(=O)O[C@@H]1C | ≥ 32 | ≥ 32 | ≥ 32 | 16 | ≥ 32 | 16 | ≥ 32 | ≥ 32 | ≥ 32
C[C@H]1NC(=O)[C@H](CC(=O)O)NC(=O)[C@H](CCCN)NC(=O)CNC(=O)[C@@H](NC(=O)[C@H](CC(=O)O)NC(=O)[C@H](CC(N)=O)NC(=O)[C@H](Cc2c[nH]c3ccccc23)NC(=O)c2ccc(C#Cc3ccccc3)cc2)[C@@H](C)OC(=O)[C@H](CC(=O)c2ccccc2N)NC(=O)[C@H]([C@@H](C)CC(=O)O)NC(=O)[C@@H](CO)NC(=O)CNC(=O)[C@H](CC(=O)O)NC1=O | 0.5 | 8 | 0.25 | 0.5 | 0.5 | 0.5 | 8 | 2 | 1
CCCCCCCCCC(=O)N[C@@H](Cc1c[nH]c2ccccc12)C(=O)N[C@@H](CC(N)=O)C(=O)N[C@@H](CC(=O)O)C(=O)N[C@@H]1C(=O)NCC(=O)N[C@@H](CCCN)C(=O)N[C@@H](CC(=O)O)C(=O)N[C@H](C)C(=O)N[C@@H](C)C(=O)NCC(=O)N[C@H](CO)C(=O)N[C@@H]([C@@H](C)CC(=O)O)C(=O)N[C@@H](CC(=O)c2ccccc2N)C(=O)O[C@@H]1C | ≥ 64 | ≥ 64 | ≥ 64 | ≥ 64 | ≥ 64 | ≥ 64 | ≥ 64 | ≥ 64 | ≥ 64
CCCCCCCCCC(=O)N[C@@H](Cc1c[nH]c2ccccc12)C(=O)N[C@@H](CC(N)=O)C(=O)N[C@@H](CC(=O)O)C(=O)N[C@@H]1C(=O)NCC(=O)N[C@@H](Cc2ccc(O)cc2)C(=O)N[C@@H](CC(=O)O)C(=O)N[C@H](C)C(=O)N[C@@H](CC(=O)O)C(=O)NCC(=O)N[C@H](CO)C(=O)N[C@@H]([C@@H](C)CC(=O)O)C(=O)N[C@@H](CC(=O)c2ccccc2N)C(=O)O[C@@H]1C | 0.5 | ≥ 32 | 1 | 1 | 4 | 4 | ≥ 32 | 16 | ≥ 32
CCCCCCCCCC(=O)N[C@@H](Cc1c[nH]c2ccccc12)C(=O)N[C@@H](CC(N)=O)C(=O)N[C@@H](CC(=O)O)C(=O)N[C@@H]1C(=O)NCC(=O)N[C@@H](Cc2c[nH]c3ccccc23)C(=O)N[C@@H](CC(=O)O)C(=O)N[C@H](C)C(=O)N[C@@H](CC(=O)O)C(=O)NCC(=O)N[C@H](CO)C(=O)N[C@@H]([C@@H](C)CC(=O)O)C(=O)N[C@@H](CC(=O)c2ccccc2N)C(=O)O[C@@H]1C | 1 | ≥ 32 | 2 | 4 | 4 | 2 | ≥ 32 | ≥ 32 | 2
CCCCCCCCCC(=O)N[C@@H](Cc1c[nH]c2ccccc12)C(=O)N[C@@H](CC(N)=O)C(=O)N[C@@H](CC(=O)O)C(=O)N[C@@H]1C(=O)NCC(=O)NCC(=O)N[C@@H](CC(=O)O)C(=O)N[C@H](C)C(=O)N[C@@H](CC(=O)O)C(=O)NCC(=O)N[C@H](CO)C(=O)N[C@@H]([C@@H](C)CC(=O)O)C(=O)N[C@@H](CC(=O)c2ccccc2N)C(=O)O[C@@H]1C | ≥ 32 | ≥ 32 | ≥ 32 | ≥ 32 | ≥ 32 | ≥ 32 | ≥ 32 | ≥ 32 | ≥ 32
CCCCCCCCCC(=O)N[C@@H](Cc1c[nH]c2ccccc12)C(=O)N[C@@H](CC(N)=O)C(=O)N[C@@H](CC(=O)O)C(=O)N[C@@H]1C(=O)NCC(=O)N[C@@H](C(C)C)C(=O)N[C@@H](CC(=O)O)C(=O)N[C@H](C)C(=O)N[C@@H](CC(=O)O)C(=O)NCC(=O)N[C@H](CO)C(=O)N[C@@H]([C@@H](C)CC(=O)O)C(=O)N[C@@H](CC(=O)c2ccccc2N)C(=O)O[C@@H]1C | ≥ 32 | ≥ 32 | ≥ 32 | 8 | 8 | 8 | ≥ 32 | ≥ 32 | ≥ 32
CCCCCCCCCC(=O)N[C@@H](Cc1c[nH]c2ccccc12)C(=O)N[C@@H](CC(N)=O)C(=O)N[C@@H](CC(=O)O)C(=O)N[C@@H]1C(=O)NCC(=O)N[C@@H](CN)C(=O)N[C@@H](CC(=O)O)C(=O)N[C@H](C)C(=O)N[C@@H](CC(=O)O)C(=O)NCC(=O)N[C@H](CO)C(=O)N[C@@H]([C@@H](C)CC(=O)O)C(=O)N[C@@H](CC(=O)c2ccccc2N)C(=O)O[C@@H]1C | 1 | ≥ 32 | 8 | 1 | 1 | 0.5 | ≥ 32 | 8 | –
